Results taken from patent US11951088B2, “Fatty acid analogs and their use in the treatment of conditions related to metabolic syndrome” (Epitracker, Inc., priority 2017, dated 2024).
Where two headings read alike, the source gives them in different places.

How the values were obtained:
[1] = system: C57BL/6J mice fed a high fat diet; test: diet-induced obese mice treated daily by gastric gavage for 12 weeks; assay type: in vivo
Method: Forty C57BL/6J mice were fed a high fat diet (HFD) (D12492, 60% kcals fat) for 8 weeks. Study mice were then divided into the following four groups of ten: vehicle controls, low dose C17:0-treated (5 mg/kg body weight), high-dose C17:0-treated (50 mg/kg body weight), and low-dose C15:0-treated (5 mg/kg body weight).
Table 1 provides comparisons of cardiometabolic effects in diet-induced obese mice treated daily with oral pentadecanoic acid (5 mg/kg BW), heptadecanoic acid (5 and 50 mg/kg BW) for 12 weeks compared to vehicle controls. “Results” values are based on 6 h fasted samples.

[2] = system: New Zealand white rabbits fed a high fat diet; test: diet-induced rabbit model for metabolic syndrome-associated dyslipidemia, anemia, liver iron overload and steatohepatitis; assay type: in vivo; settings: Day 76
Source text: This study further assessed the efficacy of treating diseases associated with metabolic syndrome, including dyslipidemia, inflammation, anemia, liver iron overload and nonalcoholic steatohepatitis, using an oral odd-chain saturated fatty acid. Sixteen New Zealand white rabbits were fed a high fat diet (HFD) (4% peanut oil and 0.5% cholesterol) for 2 weeks. Eight additional rabbits were maintained on a baseline diet. Study rabbits were then divided into the following three groups of eight: baseline diet controls, HFD controls, and C15:0-treated (35 mg/kg body weight) cases. The test article was a synthetic powder stable at room temperature and purchased from Sigma-Aldrich (Products W433400 (≥99% C15:0). The test article was provided daily in the diet for 11 weeks (76 days) while continuing ad libitum access to the HFD (HFD controls and treated groups) or baseline diet (baseline diet controls). Body weight and food intake were measured weekly. Plasma clinical chemistries and red blood cell indices, as well as iron deposition and fibrosis in the liver, were assessed at Day 76. Data from the treated group were compared to the control groups using Wilcoxon rank sum analyses. […].
Table 2 provides comparisons of clinical effects from a diet-induced rabbit model for metabolic syndrome-associated dyslipidemia, inflammation, and hemolytic anemia, including a case group treated daily with oral pentadecanoic acid (C15:0) (35 mg/kg BW) for 11 weeks.
Table 3 provides comparisons of effects on liver histology in a diet-induced rabbit model for metabolic syndrome-associated liver iron overload and nonalcoholic steatohepatitis, including a case group treated daily with oral pentadecanoic acid (C15:0) (35 mg/kg BW) for 11 weeks.

[3] = 24-hour plasma pharmacokinetics after single oral dose in rats; assay type: in vivo; settings: for bioavailability: po, 35 mg/kg
human PPAR-α = target: T1, human PPAR-α (Homo sapiens, UniProt Q07869); test: PathHunter NHR Protein Interaction assay, PPAR-α agonist activity (CHO cells); settings: PPAR-alpha; Table 4
T1 sequence (Q07869 1-468): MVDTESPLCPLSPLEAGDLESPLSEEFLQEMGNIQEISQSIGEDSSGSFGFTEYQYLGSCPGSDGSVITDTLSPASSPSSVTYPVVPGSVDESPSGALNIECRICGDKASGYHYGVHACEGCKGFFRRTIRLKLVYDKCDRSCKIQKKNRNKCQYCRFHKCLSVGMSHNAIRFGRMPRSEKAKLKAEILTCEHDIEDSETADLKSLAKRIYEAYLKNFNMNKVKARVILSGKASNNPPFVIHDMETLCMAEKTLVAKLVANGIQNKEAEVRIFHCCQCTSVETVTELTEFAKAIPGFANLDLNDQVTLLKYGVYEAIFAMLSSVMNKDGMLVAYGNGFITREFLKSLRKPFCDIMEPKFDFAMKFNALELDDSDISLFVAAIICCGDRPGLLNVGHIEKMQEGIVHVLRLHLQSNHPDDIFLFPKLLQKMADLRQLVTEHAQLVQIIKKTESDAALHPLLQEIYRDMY
Method: (§1) PPAR-α, PPAR-δ, and PPAR-γ agonist activities were measured using PathHunter Nuclear Hormone Receptor (NHR) Protein Interaction (Pro) assays (DiscoverX, Freemont, California). Briefly, Chinese hamster ovary (CHO) cell lines were used to monitor the activation of PPAR-α, PPAR-δ, and PPAR-γ in a homogenous, non-imaging assay format using Enzyme Fragment Complementation (EFC). The NHR Pro assay was based on detection of protein-protein interactions between activated, full length PPAR-α, PPAR-δ, and PPAR-γ proteins and a nuclear fusion protein containing Steroid Receptor Co-activator Peptide (SRCP) domains with one or more canonical LXXLL interaction motifs. PPAR-α, PPAR-δ, and PPAR-γ were tagged with the ProLink component of the EFC assay system, and the SRCP domain was fused to the enzyme acceptor component (EA) expressed in the nucleus. When bound by ligand, PPAR-α, PPAR-δ, or PPAR-γ migrated to the nucleus and recruited the SRCP domain, whereby complementation occurred, generating a unit of active β-Galactosidase (β-Gal) and production of chemiluminescent signal. […] Percentage activity was calculated using the following formula: % Activity=100%×(mean RLU of test sample−mean RLU of vehicle control)/(mean MAX control ligand−mean RLU of vehicle control).

human PPAR-δ = target: T2, human PPAR-δ (Homo sapiens, UniProt Q03181); test: PathHunter NHR Protein Interaction assay, PPAR-δ agonist activity (CHO cells)
T2 sequence (Q03181 1-441): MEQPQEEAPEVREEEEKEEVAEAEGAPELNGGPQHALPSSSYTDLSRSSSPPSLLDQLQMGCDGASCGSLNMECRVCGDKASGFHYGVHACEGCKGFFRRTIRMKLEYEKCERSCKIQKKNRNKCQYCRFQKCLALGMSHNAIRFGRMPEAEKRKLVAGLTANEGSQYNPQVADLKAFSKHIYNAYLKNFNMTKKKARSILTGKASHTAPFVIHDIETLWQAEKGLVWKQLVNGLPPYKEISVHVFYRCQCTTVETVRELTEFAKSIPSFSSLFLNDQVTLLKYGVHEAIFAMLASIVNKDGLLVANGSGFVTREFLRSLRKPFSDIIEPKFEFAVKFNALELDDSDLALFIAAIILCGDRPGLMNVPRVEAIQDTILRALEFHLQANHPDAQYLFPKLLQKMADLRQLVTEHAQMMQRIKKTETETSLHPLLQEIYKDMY
Method: as §1

human PPAR-γ = target: T3, human PPAR-γ (Homo sapiens, UniProt P37231); test: PathHunter NHR Protein Interaction assay, PPAR-γ agonist activity (CHO cells)
T3 sequence (P37231 1-505): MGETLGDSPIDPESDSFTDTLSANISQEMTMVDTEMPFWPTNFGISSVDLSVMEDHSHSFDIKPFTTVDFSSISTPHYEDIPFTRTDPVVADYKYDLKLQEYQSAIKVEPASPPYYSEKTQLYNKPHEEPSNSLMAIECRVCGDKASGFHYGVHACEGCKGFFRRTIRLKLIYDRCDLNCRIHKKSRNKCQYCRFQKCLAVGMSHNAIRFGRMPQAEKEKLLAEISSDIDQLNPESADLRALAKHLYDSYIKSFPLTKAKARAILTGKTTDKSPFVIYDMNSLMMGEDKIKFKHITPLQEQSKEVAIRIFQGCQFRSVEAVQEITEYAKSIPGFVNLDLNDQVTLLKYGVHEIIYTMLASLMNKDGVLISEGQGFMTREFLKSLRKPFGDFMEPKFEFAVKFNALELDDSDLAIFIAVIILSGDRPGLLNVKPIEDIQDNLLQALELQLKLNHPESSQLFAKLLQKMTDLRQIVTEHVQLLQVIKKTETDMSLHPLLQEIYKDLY
Method: as §1

[4] = Day 84, 6 h fasted, 5 mg/kg daily oral

Which results are given for CCCCCCCCCCCCCCC(=O)O [C15:0, pentadecanoic acid]?
metabolic syndrome compared to vehicle controls (in words) ([1]; 12 weeks daily oral, C15:0 5 mg/kg, C17:0 5 and 50 mg/kg): attenuated metabolic syndrome; Cholesterol [1, 4]: 183 ± 25 mg/dL; Glucose [1, 4]: 245 ± 37 mg/dL; IL-6 [1, 4]: 19 ± 11 pg/mL; Insulin [1, 4]: 4.9 ± 3.8 ng/mL; LDL-C [1, 4]: 6 ± 4 mg/dL; MCP-1 [1, 4]: 52 ± 25 pg/mL; TNF-α [1, 4]: 1.6 ± 1.0 pg/mL; clinical effects compared to the HFD controls (in words) ([2]; 35 mg/kg): attenuated anemia, liver iron deposition, and liver fibrosis; Hematocrit ([2]; 35 mg/kg/day in HFD): 38 ± 4%; Hemoglobin ([2]; 35 mg/kg/day in HFD): 14 ± 1 G/dl; Mean cell hemoglobin ([2]; 35 mg/kg/day in HFD): 23 ± 1 pg; Mean cell volume ([2]; 35 mg/kg/day in HFD): 64 ± 2 fL; Nucleated red blood cells ([2]; 35 mg/kg/day in HFD): 8 ± 1 10^3/ul; Platelets ([2]; 35 mg/kg/day in HFD): 485 ± 87 10^3/ul; Red blood cell distribution width ([2]; 35 mg/kg/day in HFD): 15 ± 1%; Red blood cells ([2]; 35 mg/kg/day in HFD): 6.0 ± 0.7 10^6/ul; Cholesterol ([2]; plasma, 35 mg/kg/day in HFD): 2516 ± 746 mg/dL; Globulins ([2]; plasma, 35 mg/kg/day in HFD): 1.3 ± 0.7 G/dl; Lipemia ([2]; plasma, 35 mg/kg/day in HFD): 341 ± 243 mg/dL; Triglycerides ([2]; plasma, 35 mg/kg/day in HFD): 235 ± 132 mg/dL; Cmin ([3]; 35 mg/kg single oral dose): 700 ng/mL; Tlast ([3]; 35 mg/kg single oral dose): 24 h; AUC(0-t) ([3]; rat, 35 mg/kg single oral dose): 46400 ng·h/mL; Tmax ([3]; rat, 35 mg/kg single oral dose): 1 h; Cmax ([3]; rat, 35 mg/kg single oral dose, deuterated form): 4980 ng/mL; bioavailability ([3]; rat, 35 mg/kg single oral dose, estimate using an AUC of 15 for a 1 mg/kg IV arm, read-out: % F): 8.83%; bioavailability ([3]; rat, oral, rats, read-out: estimated plasma % F (bioavailability)): 9%; EC50 (human PPAR-α): 11.5 µM; PPAR-delta agonist activity (in words) (human PPAR-δ): partial PPAR delta agonist; EC50 (human PPAR-γ): > 100 µM; EC50 (human PPAR-γ; read-out: Half Maximal Effective Concentration (EC50), PPAR-γ, Table 5): > 100 µM
